In patent US6814960B1, “Hydroxystilbene compounds used as microbicidal active substances” (Ciba Specialty Chemicals Corporation, priority 1998, dated 2004):
Where two headings read alike, the source gives them in different places.

Experiments:
Type in all cases: cell-based
[1] = test system: Staphylococcus aureus ATCC 9144; assay: MIC in the agar diffusion test; conditions: for MIC: Staphylococcus aureus, read-out: MIC S. aureus
From the text: (§1) Determination of the Minimum Inhibiting Concentration (MIC) in the Agar Diffusion Test

[2] = test system: Candida albicans ATCC 10231; assay: MIC in the agar diffusion test; conditions: for MIC: Candida albicans, read-out: MIC C. albicans
From the text: as §1

[3] = test system: Aspergillus niger ATCC 6275; assay: MIC in the agar diffusion test; conditions: for MIC: Aspergillus niger, ATCC6275, 72 h, read-out: MIC A. niger
From the text: as §1

[4] = test system: Pseudomonas aeruginosa CIP A-22; assay: MIC in the agar diffusion test; conditions: Mueller-Hinton agar, 24 hours at 37° C., solution in EtOH
From the text: as §1

[5] = test system: Escherichia coli NCTC 8196; assay: MIC in the agar diffusion test; conditions: for MIC: Escherichia coli, read-out: MIC E. coli
From the text: as §1

[6] = test system: Corynebacterium xerosis ATCC 373; assay: MIC in the agar diffusion test; conditions: Mueller-Hinton agar, 24 hours at 37° C.; (103) solution in EtOH
From the text: as §1

[7] = test system: Aspergillus niger ATCC 6275; assay: MIC value in microtitre plates (optical density); conditions: microtitre plate, Sabouraud 2% glucose bouillon, 5 days at 28° C., optical density 620 nm, ≦20% growth; some data indicative values
Method: (§2) Determination of the Minimum Inhibiting Concentration (MIC Value) in Microtitre Plates
(§3) Casein/soybean flour peptone bouillon for the preparation of the precultures of the test bacteria and yeast.
(§4) Mycological slant agar for the preculture of moulds.
(§5) Examples of Test Organisms
(§6) The test substances are predissolved in dimethyl sulfoxide (DMSO) and tested in a serial dilution of 1:2.
(§7) Bacteria and yeast are cultured overnight in CASO bouillon, the mould on mycological slant agar and rinsed off with 10 ml of 0.85% sodium chloride solution (+0.1% TritonX-100).
(§8) All test organisms are adjusted to an organism count of 1.5×10^6 CFU/ml with 0.85% sodium chloride solution.
(§9) The test substances are prepipetted into microtitre plates in an amount of 8 μl per well.
(§10) Previously diluted organism substances are diluted 1:100 in CASO bouillon (bacteria and yeast) and Sabouraud 2% glucose bouillon (mould) and added to the test substances in an amount of 192 μl per well.
(§11) The test batches are incubated for 48 hours at 37° C. (bacteria and yeast) or for 5 days at 28° C. (mould).
(§12) After incubation, the growth is determined by reference to the turbidity of the test batches (optical density) at 620 nm in a microplate reader.
(§13) The minimum inhibiting concentration (MIC value) is the concentration of substance at which (compared with the growth control) an appreciable inhibition of the growth (≦20% growth) of the test organisms is ascertained.
(§14) One microtiter plate is used for each test organism and substance concentration. All substances tested in duplicate.

[8] = test system: Pseudomonas aeruginosa CIP A-22; assay: MIC value in microtitre plates (optical density); conditions: microtitre plate, CASO bouillon, 48 hours at 37° C., optical density 620 nm, ≦20% growth; some data indicative values
Method: as §2, §3, §4, §5, §6, §7, §8, §9, §10, §11, §12, §13, §14

[9] = test system: Staphylococcus hominis DSM 20328; assay: MIC value in microtitre plates (optical density); conditions: microtitre plate, CASO bouillon, 48 hours at 37° C., optical density 620 nm, ≦20% growth; some data indicative values
Method: as §2, §3, §4, §5, §6, §7, §8, §9, §10, §11, §12, §13, §14

[10] = test system: Candida albicans ATCC 10231; assay: MIC value in microtitre plates (optical density); conditions: microtitre plate, CASO bouillon, 48 hours at 37° C., optical density 620 nm, ≦20% growth; some data indicative values
Method: as §2, §3, §4, §5, §6, §7, §8, §9, §10, §11, §12, §13, §14

[11] = test system: Escherichia coli NCTC 8196; assay: MIC value in microtitre plates (optical density); conditions: microtitre plate, CASO bouillon, 48 hours at 37° C., optical density 620 nm, ≦20% growth; some data indicative values
Method: as §2, §3, §4, §5, §6, §7, §8, §9, §10, §11, §12, §13, §14

[12] = Mueller-Hinton agar, 24 hours at 37° C., (101), (103) solution in EtOH, others in DMSO
[13] = Sabouraud 4% glucose agar, 3 days at 28° C., (101) solution in EtOH, others in DMSO

| SMILES | MIC values A. niger [7] [ppm] | MIC values P. aeruginosa [8] [ppm] | MIC values S. heminis [9] [ppm] | MIC values C. albicans [10] [ppm] | MIC values E. coli [11] [ppm] | also measured |
| --- | --- | --- | --- | --- | --- | --- |
| CN(C)c1ccc(/C=C/c2ccccc2)cc1 [Compound of formula (104)] |  |  |  |  |  | MIC S. aureus [1, 12]: 300 ppm; MIC C. albicans [2, 12]: 600 ppm |
| Oc1cc(O)cc(C=Cc2ccccc2)c1 [Compound of formula (101), 3,5-dihydroxystilbene] |  |  |  |  |  | MIC [3, 13]: 100 µg/mL; MIC ([4]; Pseudomonas aeruginosa, CIPA22, read-out: MIC P. aeruginosa): 100 µg/mL; MIC ([1]; ATCC9144, Mueller-Hinton agar, 24 hours at 37° C., (101), (103) solution in EtOH, others in DMSO): 100 µg/mL; MIC ([2]; ATCC10231, Mueller-Hinton agar, 24 hours at 37° C., (101), (103) solution in EtOH, others in DMSO): 100 µg/mL; MIC ([5]; NCTC8196, Mueller-Hinton agar, 24 hours at 37° C., (101), (103) solution in EtOH, (102) in DMSO): 100 µg/mL |
| Oc1ccc(/C=C/c2cc(O)cc(O)c2)cc1 [Compound of formula (103)] |  |  |  |  |  | MIC P. aeruginosa [4]: 600 ppm; MIC S. aureus [1, 12]: 600 ppm; MIC C. albicans [2, 12]: 600 ppm; MIC C. xerosis [6]: 100 ppm; MIC E. coli ([5]; Mueller-Hinton agar, 24 hours at 37° C., (101), (103) solution in EtOH, (102) in DMSO): 600 ppm |
| Oc1ccc(/C=C/c2ccc(Cl)cc2)cc1 [Compound of formula (106)] |  |  |  |  |  | MIC A. niger [3, 13]: 600 ppm; MIC S. aureus [1, 12]: 10 ppm |
| Oc1cccc(/C=C/c2ccc(Cl)cc2)c1 [Comp. of formula 120] | 30 | >100 | 7.5 | 7.5 | 7.5 |  |
| COc1ccc(/C=C/c2ccc(OC)c(O)c2)cc1 [Comp. of formula 133] | >100 | >100 | >100 | >100 | >100 |  |
| Oc1cccc(/C=C/c2ccccc2)c1 [Compound of formula (102), 3-hydroxystilbene] |  |  |  |  |  | MIC [3]: 10 µg/mL; MIC ([1]; ATCC9144, 24 h): 100 µg/mL; MIC ([2]; ATCC10231, 24 h): 100 µg/mL; MIC ([5]; NCTC8196, 24 h): 100 µg/mL |
| COc1cc(/C=C/c2cccc3ccccc23)ccc1O [Comp. of formula 160] | 100 | >100 | >100 | >100 | >100 |  |
| COc1ccc(/C=C/c2ccccc2)cc1O [Comp. of formula 109] | 100 | >100 | >100 | >100 | >100 |  |
| COc1cc(/C=C/c2ccc(Cl)cc2)cc(O)c1OC [Comp. of formula 126] | 100 | >100 | >100 | 100 | >100 |  |
| Cc1ccccc1/C=C/c1ccc(O)cc1 [Comp. of formula 168] | 30 | 100 | 7.5 | 15 | 30 |  |
| COc1cc(/C=C/c2ccc(-c3ccccc3)cc2)ccc1O [Comp. of formula 148] | >100 | >100 | >100 | >100 | >100 |  |
| CCOc1cc(/C=C/c2cccc3ccccc23)ccc1O [Comp. of formula 159] | 100 | >100 | >100 | >100 | >100 |  |
| Oc1ccccc1/C=C/c1ccc(-c2ccccc2)cc1 [Comp. of formula 150] | >100 | >100 | >100 | >100 | >100 |  |
| COc1ccc(/C=C/c2ccc(O)cc2)cc1 [Comp. of formula 131] | >100 | >100 | >100 | >100 | >100 |  |
| COc1cc(/C=C/c2ccccc2)ccc1O [Comp. of formula 111] | 100 | >100 | >100 | >100 | >100 |  |
| CCOc1cc(/C=C/c2ccc(Cl)cc2)ccc1O [Comp. of formula 122] | >100 | >100 | >100 | >100 | >100 |  |
| COc1cc(/C=C/c2ccccc2C)cc(O)c1OC [Comp. of formula 175] | 100 | 100 | 60 | 60 | 60 |  |
| Oc1cccc(/C=C/c2cccc3ccccc23)c1 [Comp. of formula 157] | 60 | >100 | 7.5 | 15 | 15 |  |
| COc1cc(/C=C/c2ccccc2)cc(O)c1OC [Comp. of formula 114] | 100 | >100 | >100 | >100 | 100 |  |
| Cc1ccc(/C=C/c2ccccc2O)cc1 [Comp. of formula 186] | 60 | 100 | 30 | 30 | 30 |  |
| COc1ccc(/C=C/c2ccc(C)cc2)cc1O [Comp. of formula 182] | >100 | >100 | >100 | >100 | >100 |  |
